Holding throughout (format): biochemical, Arthrobacter sp. KNK04-25
Experiment [1] concerns TAT. Kind of experiment: Specificity 2 to amino group donor: typical substrates of ω-amino acid transaminase. The following applies: amino group donor 14 mM, 2-ketoglutaric acid 14 mM; for activity of the polypeptide for amino group donor (in words): pH 7.0; for Relative activity: pH 7.0, 30° C., 60 minutes, (S)-1-phenethylamine = 100. The procedure:
(§1) Each reagent was added to the enzyme solution (100 μL each) so that the final concentrations were as specified in the following composition of the substrate solution. The volume of each reaction solution was adjusted to 400 μl with 0.1 M potassium phosphate buffer (pH 7.0). After 60 minutes of reaction at 30° C., 20 μL of 3N hydrochloric acid was added to stop the reaction. Next, 80 μL of a 0.2 M aqueous sodium carbonate solution and 200 μL of an acetone solution of 3.3 mg/mL Dabsyl chloride were each added to 20 μL of the thus obtained reaction solution, followed by 10 minutes of reaction at 70° C. Acetic acid (20 μL) was added to 50 μL of the reaction solution and then the solution was stirred. The resultant was analyzed by high performance liquid chromatography under the following conditions and thus the quantity of dabsylated glutamic acid was determined. In addition, the activity of an enzyme used in this assay was adjusted so that the amount of glutamic acid generated was 2.8 mM or less.
(§2) [Composition of Substrate Solution]
[High Performance Liquid Chromatography Analysis Conditions] • Column: YMC-Pack Pro C18 RS (YMC) • Eluent: acetonitrile/45 mM acetate buffer (pH 4.1)=35/65 (volume ratio) • Flow rate: 0.9 mL/minute • Detection: 254 nm • Column temperature: 30° C.

Experiment [2] deals with TAT. Briefly: Specificity to amino group donor (dabsylated glutamic acid, HPLC). The following applies: amino group donor 14 mM, 2-ketoglutaric acid 14 mM; for activity of TAT for amino group donor (in words): pH 7.0; for Relative activity: pH 7.0, 30° C., 60 minutes, benzylamine = 100. On the procedure:
The substrate specificity of TAT to amino group donors was examined using the cell-free extracts obtained in Example 5.
as §1, with “solution (100 μL, each) so” for “solution (100 μL each) so”, “C., 20 μL, of 3N” for “C., 20 μL of 3N”, “Next, 80 μL, of a” for “Next, 80 μL of a”, “and 200 μL, of an” for “and 200 μL of an”, “to 20 μL, of the” for “to 20 μL of the”, “to 50 μL, of the” for “to 50 μL of the”
as §2
[High Performance Liquid Chromatography Analysis Conditions] • Column: Cosmosil 5C8-MS (NACALAI TESQUE, INC.) • Eluent: distilled water 2000 mL/acetonitrile 500 mL/methanol 500 ml/KH2PO4 6.1 g/H3PO4 2.5 g • Flow rate: 1 mL/minute • Detection: 254 nm • Column temperature: 30° C.

The subject of experiment [3] is TAT.
The subject of experiment [4] is TAT. Kind of experiment: Specificity 3 to amino group donor with 1-benzyl-3-pyrrolidinone as receptor. To be noted: amino group donor 290 mM, 1-benzyl-3-pyrrolidinone 29 mM; for Relative activity: pH 7.0, 30° C., 90 minutes, L-alanine = 100. The procedure:
With the use of the cell-free extracts obtained in Example 5, the substrate specificity of TAT to an amino group donor was examined. Each reagent was added to enzyme solutions (200 μL each) so that the final concentrations were as specified in the following composition of the substrate solution. The volume of each reaction solution was adjusted to 400 μl with 0.1 M potassium phosphate buffer (pH 7.0). After 90 minutes of reaction at 30° C., 15 μL of 6N hydrochloric acid was added to stop the reaction. The thus obtained reaction solutions were analyzed by high performance liquid chromatography under the following conditions.
as §2
[High Performance Liquid Chromatography Quantitative Analysis Conditions] <Quantitative Analysis> • Column: Finepak SIL C18-T (JASCO Corporation) • Eluent: distilled water 945 mL/acetonitrile 555 mL/KH2PO4 7.5 g/SDS 2.16 g (adjusted with H3PO4 to pH 3.6) • Flow rate: 1 mL/minute • Detection: 254 nm • Column temperature: 40° C. <Analysis of Optical Purity>
Each reaction solution was treated with an appropriate amount of sodium carbonate so that it became basic, derivatized with dinitrobenzoyl chloride, and then analyzed under the following conditions. • Column: Chiralcel IA (Daicel Corporation) • Eluent: hexane/ethanol/diethylamine/acetonitrile=800/200/1/5 (volume ratio) • Flow rate: 0.8 mL/minute • Detection: 254 nm • Column temperature: 30° C.

[5] abbreviates: amino group receptor 14 mM, (S)-1-phenethylamine 14 mM, pH 7.0, 30° C., 60 minutes, 2-ketoglutaric acid = 100.

Read-outs that look alike come from different tables or passages of the source.

As for `Cl.NCCC(N)C(=O)O` (racemic) [±2,4-diaminobutyric acid·HCl], in the experiment on TAT [1], the “activity of the polypeptide for amino group donor (in words)” value is “did not exhibit activity” and the Relative activity worked out at 0%.

On to `CCC(C)N` (racemic) [±2-butylamine], for which, in the experiment with TAT [2], the “activity of TAT for amino group donor (in words)” value is “exhibited activity” and the Relative activity was 7%.

With `O=C1CCN(Cc2ccccc2)C1` [1-benzyl-3-pyrrolidinone], in the experiment with TAT [3] ([…], 2-ketoglutaric acid = 100), the Relative activity turned out to be 20%.

Take `O=C1CCCc2ccccc21` [1-tetralone]: the Relative activity in the experiment with TAT [3] ([…], 2-ketoglutaric acid = 100) is given as 1%.

With `CC(=O)c1ccccn1` [2-acetylpyridine], the Relative activity in the experiment with TAT [3] ([…], 2-ketoglutaric acid = 100) was found to be 60%.

As for `CCC(C)=O` [2-butanone], in the experiment with TAT [3] ([…], 2-ketoglutaric acid = 100), the Relative activity is 0%.

Consider `CCCCCC(C)=O` [2-heptanone], for which the Relative activity in the experiment on TAT [3] ([…], 2-ketoglutaric acid = 100) is 3%.

As for `CCCCC(C)=O` [2-hexanone], in the experiment on TAT [3] ([…], 2-ketoglutaric acid = 100), the Relative activity worked out at 4%.

As to `CCCC(=O)C(=O)O` [2-keto-n-valeric acid], in the experiment on TAT [3] (setting [5]), the Relative activity was 3%.

Consider `CCC(=O)C(=O)O` [2-ketobutyric acid], for which, in the experiment with TAT [3] ([…], 2-ketoglutaric acid = 100), the Relative activity turned out to be 5%.

Consider `O=C(O)CCC(=O)C(=O)O` [2-ketoglutaric acid], for which the “activity of the polypeptide for amino group receptor (in words)” value in the experiment on TAT [3] (amino group receptor 14 mM, (S)-1-phenethylamine 14 mM) is “high activity”. Moreover, in the experiment on TAT [3] (setting [5]), the Relative activity is reported as 100%.

Regarding `CCCC(C)=O` [2-pentanone], in the experiment with TAT [3] ([…], 2-ketoglutaric acid = 100), the Relative activity was found to be 1%.

For `O=C1CCc2ccccc2C1` [2-tetralone], the Relative activity in the experiment with TAT [3] ([…], 2-ketoglutaric acid = 100) is listed as 1%.

For the compound `CCCCC(=O)CC` [3-heptanone], in the experiment with TAT [3] ([…], 2-ketoglutaric acid = 100), the Relative activity came out at 5%.

Consider `CCC(=O)CC#N` [3-oxopentanenitrile], for which, in the experiment with TAT [3] ([…], 2-ketoglutaric acid = 100), the Relative activity was 0%.

On to `CCC(=O)CC` [3-pentanone], for which the Relative activity with TAT [3] ([…], 2-ketoglutaric acid = 100) was 1%.

For the compound `NCCCC(=O)O` [4-aminobutyric acid], in the experiment with TAT [1], the “activity of the polypeptide for amino group donor (in words)” value is given as “did not exhibit activity” and the Relative activity stood at 0%.

As to `CC(=O)CCO` [4-hydroxy butane-2-one], the Relative activity with TAT [3] ([…], 2-ketoglutaric acid = 100) came out at 0%.

Turning to `NCCCCC(=O)O` [5-aminovaleric acid], in the experiment on TAT [1], the “activity of the polypeptide for amino group donor (in words)” value is on record as “did not exhibit activity” and the Relative activity is recorded as 0%.

Regarding `NCCCCCC(=O)O` [6-aminocaproic acid], in the experiment with TAT [1], the “activity of the polypeptide for amino group donor (in words)” value is recorded as “did not exhibit activity” and the Relative activity was determined as 0%.

On to `COc1ccc2c(c1)CC(=O)CC2` [7-methoxy-2-tetralone], for which, in the experiment on TAT [3] ([…], 2-ketoglutaric acid = 100), the Relative activity is recorded as 0%.

On to `C[C@H](N)c1ccccc1` [(S)-α-phenethylamine], for which, in the experiment with TAT [1], the Relative activity is on record as 100%.

As to `CC(C)=O` [Acetone], the Relative activity in the experiment on TAT [3] ([…], 2-ketoglutaric acid = 100) was 0%.

Regarding `O=Cc1ccccc1` [Benzaldehyde], the Relative activity in the experiment on TAT [3] ([…], 2-ketoglutaric acid = 100) came out at 70%.

On to `O=C(Cc1ccccc1)c1ccccc1` [Benzyl phenyl ketone], for which the Relative activity in the experiment with TAT [3] (setting [5]) is listed as 0%.

As for `NCc1ccccc1` [Benzylamine], in the experiment on TAT [2], the “activity of TAT for amino group donor (in words)” value is recorded as “exhibited activity” and the Relative activity is 100%.

`CCCC=O` [Butylaldehyde]: the Relative activity in the experiment with TAT [3] (setting [5]) turned out to be 6%.

With `CCOC(=O)CC(C)=O` [Ethyl acetoacetate], the Relative activity with TAT [3] ([…], 2-ketoglutaric acid = 100) amounted to 2%.

Regarding `O=CC(=O)O` [Glyoxalic acid], the “activity of the polypeptide for amino group receptor (in words)” value in the experiment on TAT [3] is “exhibited activity”. Moreover, the Relative activity in the experiment with TAT [3] ([…], 2-ketoglutaric acid = 100) was found to be 40%.

With `C[C@H](N)C(=O)O` [L-alanine], in the experiment on TAT [4], the Relative activity amounted to 100%.

As to `N[C@@H](CCC(=O)O)C(=O)O` [L-glutamic acid], in the experiment on TAT [4], the “activity of TAT for amino group donor compared with L-alanine (in words)” value is recorded as “higher activity” and the Relative activity was 1650%.

Consider `Cl.NCCCC[C@H](N)C(=O)O` [L-lysine·HCl], for which, in the experiment with TAT [1], the “activity of the polypeptide for amino group donor (in words)” value is recorded as “did not exhibit activity” and the Relative activity is recorded as 0%.

Regarding `CCCC(=O)CC(=O)OC` [Methyl 3-oxohexanoate], in the experiment with TAT [3] ([…], 2-ketoglutaric acid = 100), the Relative activity is 4%.

As for `CCC(=O)CC(=O)OC` [Methyl 3-oxovalerate], the Relative activity with TAT [3] ([…], 2-ketoglutaric acid = 100) is recorded as 4%.

With `O=C(O)CC(=O)C(=O)O` [Oxalacetic acid], in the experiment on TAT [3] ([…], 2-ketoglutaric acid = 100), the Relative activity was determined as 4%.

Take `O=C(O)C(=O)Cc1ccccc1` [Phenylpyruvic acid]: the Relative activity in the experiment on TAT [3] ([…], 2-ketoglutaric acid = 100) came to 8%.

With `NCCCCN` [Putrescine·2HCl], in the experiment on TAT [1], the “activity of the polypeptide for amino group donor (in words)” value is “did not exhibit activity” and the Relative activity is recorded as 0%.

Take `CC(=O)C(=O)O` [Pyruvic acid]: in the experiment on TAT [3], the “activity of the polypeptide for amino group receptor (in words)” value is “exhibited activity”. In addition, the Relative activity in the experiment on TAT [3] ([…], 2-ketoglutaric acid = 100) is 10%.

Consider `O=C1CN2CCC1CC2` [Quinuclidinone], for which the Relative activity with TAT [3] (pH 7) worked out at 0%.

For the compound `CCCCN` [n-butylamine], in the experiment with TAT [2], the “activity of TAT for amino group donor (in words)” value was “exhibited activity” and the Relative activity was 4%.

As for `N#CCC(=O)c1ccccc1` [α-cyanoacetophenone], the Relative activity with TAT [3] ([…], 2-ketoglutaric acid = 100) stood at 0%.

For the compound `NCCC(=O)O` [β-alanine], in the experiment with TAT [1], the “activity of the polypeptide for amino group donor (in words)” value is “did not exhibit activity” and the Relative activity is given as 0%.

(Values after US9481871B2, “Nucleic acid encoding a polpeptide having aminotransferase activity, vectors and host cells comprising the nucleic acid” (KANEKA CORPORATION, priority 2010, dated 2016).)
